Experimental data published in patent US9428492B2, “Secondary alcohol substituted triazoles as PDE10 inhibitors” (Merck Sharp & Dohme Corp., priority 2012, dated 2016).
Like-named read-outs stand apart in the source and are kept apart here.

Experiments:
human PDE10A2 = human PDE10A2 (Homo sapiens (Human), UniProt Q9Y233); assay: PDE10 fluorescence polarization (IMAP FP) inhibition assay; type: biochemical
Protocol: The activity of the compounds in accordance with the present invention as PDE10 inhibitors may be readily determined without undue experimentation using a fluorescence polarization (FP) methodology that is well known in the art (Huang, W., et al., J. Biomol Screen, 2002, 7: 215).
In a typical experiment the PDE10 inhibitory activity of the compounds of the present invention was determined in accordance with the following experimental method. PDE10A2 was amplified from human fetal brain cDNA (Clontech, Mountain View, Calif.) using a forward primer corresponding to nucleotides 56-77 of human PDE10A2 (Accession No. AF127480, Genbank Identifier 4894716), containing a Kozak consensus sequence, and a reverse primer corresponding to nucleotides 2406-2413 of human PDE10A2 (Accession No. AF127480, Genbank Identifier 4894716). Amplification with Easy-A polymerase (Stratagene, La Jolla, Calif.) was 95° C. for 2 minutes followed by thirty three cycles of 95° C. for 40 seconds, 55° C. for 30 seconds, and 72° C. for 2 minutes 48 seconds. Final extension was 72° C. for 7 minutes. The PCR product was TA cloned into pcDNA3.2-TOPO (Invitrogen, Carlsbad, Calif.) according to standard protocol. AD293 cells with 70-80% confluency were transiently transfected with human PDE10A2/pcDNA3.2-TOPO using Lipofectamine 2000 according to manufacturer specifications (Invitrogen, Carlsbad, Calif.). Cells were harvested 48 hours post-transfection and lysed by sonication (setting 3, 10×5 sec pulses) in a buffer containing 20 mM HEPES, 1 mM EDTA and protease inhibitor cocktail (Roche). Lysate was collected by centrifugation at 75,000×g for 20 minutes. Supernatant containing the cytoplasmic fraction was used for evaluation of PDE10A2 activity. The fluorescence polarization assay for cyclic nucleotide phosphodiesterases was performed using an IMAP® FP kit supplied by Molecular Devices, Sunnyvale, Calif. (product # R8139). IMAP® technology has been applied previously to phosphodiesterase assays (Huang, W., et al., J. Biomol Screen, 2002, 7: 215). Assays were performed at room temperature in 384-well microtiter plates with an incubation volume of 20.2 μL. Solutions of test compounds were prepared in DMSO and serially diluted with DMSO to yield 8 μL of each of 10 solutions differing by 3-fold in concentration, at 32 serial dilutions per plate. […] 0% of inhibition is determined by using DMSO (1% final concentrations).
A Labcyte Echo 555 (Labcyte, Sunnyvale, Calif.) is used to dispense 200 nL from each well of the titration plate to the 384 well assay plate. A solution of enzyme (1/1600 dilution from aliquots; sufficient to produce 20% substrate conversion) and a separate solution of FAM-labeled cAMP PDE from Molecular Devices (product # R7506), at a final concentration of 50 nM are made in the assay buffer (10 mM Tris HCl, pH 7.2, 10 mM MgCl2, 0.05% NaN3 0.01% Tween-20, and 1 mM DTT). The enzyme and the substrate are then added to the assay plates in two consecutive additions of 10 μL, and then shaken to mix. The reaction is allowed to proceed at room temperature for 30 minutes. […] The enzymatic reaction is stopped by addition of 60 μL of the binding solution to each well of the assay plates and the plates are sealed and shaken for 10 seconds. The plate was incubated at room temperature for at least one hour prior to determining the fluorescence polarization (FP). The parallel and perpendicular fluorescence of each well of the plate was measured using a Perkin Elmer EnVision™ plate reader (Waltham, Mass.).
Fluorescence polarization (mP) was calculated from the parallel (S) and perpendicular (P) fluorescence of each sample well and the analogous values for the median control well, containing only substrate (So and Po), using the following equation: Polarization (mP)=1000*(S/So−P/Po)/(S/So+P/Po).
Dose-inhibition profiles for each compound were characterized by fitting the mP data to a four-parameter equation given below.

CYP2C9 = CYP2C9 (Homo sapiens (Human), UniProt P11712); assay: reversible inhibition of CYP2C9; type: in vitro ADME
Sequence of CYP2C9 (P11712 whole entry): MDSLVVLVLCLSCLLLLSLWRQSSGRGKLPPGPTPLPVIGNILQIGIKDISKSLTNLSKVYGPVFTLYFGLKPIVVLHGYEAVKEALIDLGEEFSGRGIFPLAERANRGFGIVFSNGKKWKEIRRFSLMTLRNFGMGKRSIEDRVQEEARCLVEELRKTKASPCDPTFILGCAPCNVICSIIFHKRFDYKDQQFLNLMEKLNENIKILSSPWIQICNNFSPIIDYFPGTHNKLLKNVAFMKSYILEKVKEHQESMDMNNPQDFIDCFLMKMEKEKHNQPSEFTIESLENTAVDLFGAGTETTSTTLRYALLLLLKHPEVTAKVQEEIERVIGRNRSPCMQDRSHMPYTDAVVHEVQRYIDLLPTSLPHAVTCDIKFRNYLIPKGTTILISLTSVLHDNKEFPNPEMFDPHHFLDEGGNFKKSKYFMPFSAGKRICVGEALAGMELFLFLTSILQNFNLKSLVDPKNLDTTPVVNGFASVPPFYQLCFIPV

CYP3A4 = CYP3A4 (Homo sapiens (Human), UniProt P08684); assay: time-dependent inhibition (TDI) of CYP3A4; type: in vitro ADME
Sequence of CYP3A4 (P08684 whole entry): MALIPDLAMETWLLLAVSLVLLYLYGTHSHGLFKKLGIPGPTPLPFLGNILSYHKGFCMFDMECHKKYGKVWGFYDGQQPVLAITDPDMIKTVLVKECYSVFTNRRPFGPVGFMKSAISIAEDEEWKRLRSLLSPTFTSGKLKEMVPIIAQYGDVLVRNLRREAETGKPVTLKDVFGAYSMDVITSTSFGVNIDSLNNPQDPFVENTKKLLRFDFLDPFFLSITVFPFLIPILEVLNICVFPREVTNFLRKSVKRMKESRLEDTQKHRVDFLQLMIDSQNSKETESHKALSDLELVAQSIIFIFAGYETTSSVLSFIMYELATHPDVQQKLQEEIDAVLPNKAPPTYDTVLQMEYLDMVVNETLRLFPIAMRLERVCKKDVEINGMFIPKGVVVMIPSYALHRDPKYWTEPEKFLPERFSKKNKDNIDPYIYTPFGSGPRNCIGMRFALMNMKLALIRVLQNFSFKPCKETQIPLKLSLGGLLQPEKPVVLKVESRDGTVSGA

Sequence of human PDE10A2 (Q9Y233 267-1055): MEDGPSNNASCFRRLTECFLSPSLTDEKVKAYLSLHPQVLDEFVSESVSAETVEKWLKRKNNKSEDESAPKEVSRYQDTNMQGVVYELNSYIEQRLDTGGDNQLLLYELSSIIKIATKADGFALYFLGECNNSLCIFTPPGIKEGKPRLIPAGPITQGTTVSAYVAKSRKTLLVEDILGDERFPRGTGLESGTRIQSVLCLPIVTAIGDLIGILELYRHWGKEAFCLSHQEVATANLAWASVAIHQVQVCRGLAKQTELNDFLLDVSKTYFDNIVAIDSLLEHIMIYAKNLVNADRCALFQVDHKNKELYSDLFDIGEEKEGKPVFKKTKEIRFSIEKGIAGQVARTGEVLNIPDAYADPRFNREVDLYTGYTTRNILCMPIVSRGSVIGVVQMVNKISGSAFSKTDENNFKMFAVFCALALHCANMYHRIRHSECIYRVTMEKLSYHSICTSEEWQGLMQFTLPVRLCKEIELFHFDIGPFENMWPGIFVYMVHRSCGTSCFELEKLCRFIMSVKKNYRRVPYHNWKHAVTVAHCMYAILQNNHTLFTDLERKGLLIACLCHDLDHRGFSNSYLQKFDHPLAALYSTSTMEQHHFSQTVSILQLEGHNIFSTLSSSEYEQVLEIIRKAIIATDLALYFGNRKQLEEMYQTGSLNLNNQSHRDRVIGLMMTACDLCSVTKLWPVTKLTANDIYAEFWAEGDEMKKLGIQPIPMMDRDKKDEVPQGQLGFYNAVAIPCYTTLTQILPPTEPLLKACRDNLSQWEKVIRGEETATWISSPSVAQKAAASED

Which Ki (human PDE10A2; comparison table with Compounds A, B, C, read-out: PDE10 Ki) does the source give for `Cc1nc([C@@H]2C[C@H]2c2nc3ccccc3n2C)cc(-n2nc(C)nc2[C@@H](C)O)n1` [Example 14, (R)-1-(3-methyl-1-(2-methyl-6-((1R,2R)-2-(1-methyl-1H-benzo[d]imidazol-2-yl)cyclopropyl)pyrimidin-4-yl)-1H-1,2,4-triazol-5-yl)ethanol] here?
The Ki was 1.1 nM.

What about the Ki (human PDE10A2; read-out: PDE10a Ki) of the same molecule?
The Ki was 1.1 nM.

What about the IC50 (CYP2C9) of the same molecule?
The IC50 was greater than 50000 nM.

What about the “TDI CYP3A4 shift ratio” value (CYP3A4) of the same molecule?
Its value is 1.

And the “time-dependent inhibition (TDI) of the CYP3A4 enzyme” value (CYP3A4; result in words)?
The value was “do not exhibit TDI of CYP3A4”.
